Laboratory results taken from patent publication US6696424B1, “Cytofectin dimers and methods of use thereof” (Vical Incorporated, priority 1999, dated 2004).

System: B16F10 melanoma tumors
Experiment: Subcutaneous melanoma tumor model, in vivo transfection with CAT reporter gene
Set-up: species or system BALB/C mice
Conditions: cytofectin/CAT plasmid complex injected into tumor, tumors collected after forty-eight hours; averages; FIG. 3
Protocol: A) General Subcutaneous Tumor Transfection Assay. Tumors are prepared by injecting a suspension of tumor cells subcutaneously on the side of a mouse strain compatible with the specific tumor type. The tumors are periodically measured. Once the tumors reach a size suitable for injection, the tumor volume is approximated based on the measured diameter assuming a spherical tumor. A complex of the cytofectin compound to be evaluated with a plasmid encoding a reporter gene (e.g., CAT) in a volume of saline equal to the volume of the tumor to be treated is then injected at a flow rate optimized for the particular tumor type. After an appropriate time, the tumors are collected, frozen and then ground up. The reporter gene product is subsequently extracted and the quantity expressed is determined using extraction and assay conditions appropriate for the particular gene product. A variety of tumor types may be evaluated using this general technique. […]
B) Subcutaneous Melanoma Tumor Model. […] When the tumors reached 4.5 mm to 7.0 mm in diameter, the volume of each individual tumor was calculated by measuring the diameter of the tumor and assuming a spherical tumor. For each individual tumor, a volume of the cytofectin/CAT plasmid complex in saline equivalent to the calculated volume of the tumor was injected into the tumor at a rate of 2 ml/min. […] CAT activity was quantitated as described below. […]

Row | SMILES | CAT activity (relative transgene expression vs pDNA transfection alone)
1 | CCCCCCCCCCCCCCOCC(C[N+](C)(C)CCCNC(=O)NCCCCNC(=O)NCCC[N+](C)(C)CC(COCCCCCCCCCCCCCC)OCCCCCCCCCCCCCC)OCCCCCCCCCCCCCC (centres unmarked) [SBGU-DMRIE] | greater activity than the naked DNA (pDNA) control
2 | CCCCCCCCCCCCCCOCC(C[N+](C)(C)CCCNC(=O)NCCCCCCNC(=O)NCCC[N+](C)(C)CC(COCCCCCCCCCCCCCC)OCCCCCCCCCCCCCC)OCCCCCCCCCCCCCC (centres unmarked) [SHGU-DMRIE] | greater activity than the naked DNA (pDNA) control
